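How tested: cells in 96-well plates exposed to compound for 48 hours at five concentrations. GI50 marks 50% less growth. TGI: total growth inhibition.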
Columns and labels:
Assay in all cases: inhibition of tumour cell growth, NCI panel, 48 h
786-0 renal = system: 786-0 renal
A498 renal = system: A498 renal
A549 NSCLC = system: A549 NSCLC
ACHN renal = system: ACHN renal
BT-549 breast = system: BT-549 breast
CAKI-1 renal = system: CAKI-1 renal
CCRF-CEM leukemia = system: CCRF-CEM leukemia
COLO 205 colon = system: COLO 205 colon
DU-145 prostate = system: DU-145 prostate
EKVX NSCLC = system: EKVX NSCLC
HCC-2998 colon = system: HCC-2998 colon
HCT-116 colon = system: HCT-116 colon
HCT-15 colon = system: HCT-15 colon
HOP-62 NSCLC = system: HOP-62 NSCLC
HOP-92 NSCLC = system: HOP-92 NSCLC
HS 578T breast = system: HS 578T breast
HT29 colon = system: HT29 colon
K-562 leukemia = system: K-562 leukemia
KM12 colon = system: KM12 colon
LOX IMVI melanoma = system: LOX IMVI melanoma
M14 melanoma = system: M14 melanoma
MALME-3M melanoma = system: MALME-3M melanoma
MCF7 breast = system: MCF7 breast
MDA-MB-231 breast = system: MDA-MB-231 breast
MDA-MB-435 = system: MDA-MB-435
MOLT-4 leukemia = system: MOLT-4 leukemia
NCI-H226 lung = system: NCI-H226 lung
NCI-H23 lung = system: NCI-H23 lung
NCI-H460 lung = system: NCI-H460 lung
NCI-H522 lung = system: NCI-H522 lung
OVCAR-3 ovarian = system: OVCAR-3 ovarian
OVCAR-4 ovarian = system: OVCAR-4 ovarian
OVCAR-5 ovarian = system: OVCAR-5 ovarian
OVCAR-8 ovarian = system: OVCAR-8 ovarian
PC-3 prostate = system: PC-3 prostate
RPMI-8226 leukemia = system: RPMI-8226 leukemia
SF-268 CNS = system: SF-268 CNS
SF-295 CNS = system: SF-295 CNS
SF-539 CNS = system: SF-539 CNS
SK-MEL-2 melanoma = system: SK-MEL-2 melanoma
SK-MEL-28 melanoma = system: SK-MEL-28 melanoma
SK-MEL-5 melanoma = system: SK-MEL-5 melanoma
SK-OV-3 ovarian = system: SK-OV-3 ovarian
SN12C renal = system: SN12C renal
SNB-19 CNS = system: SNB-19 CNS
SNB-75 CNS = system: SNB-75 CNS
SW-620 colon = system: SW-620 colon
T-47D breast = system: T-47D breast
TK-10 renal = system: TK-10 renal
U251 CNS = system: U251 CNS
UACC-62 melanoma = system: UACC-62 melanoma
UO-31 renal = system: UO-31 renal

CC(=O)/C=C/C1=C(c2ccsc2)c2ccccc2CC1 showed a GI50 (786-0 renal) of 34.1 µM, a TGI (786-0 renal) greater than 100 µM and a GI50 (A498 renal) of 24.7 µM. For the same molecule, the TGI (A498 renal) was 69.7 µM, the GI50 (A549 NSCLC) was 17.4 µM and the TGI (A549 NSCLC) was 37.5 µM. The GI50 (ACHN renal) was 25.9 µM, the TGI (ACHN renal) was 61.1 µM and the GI50 (BT-549 breast) was 29.5 µM. For the same molecule, the TGI (BT-549 breast) was 69.3 µM, the GI50 (CAKI-1 renal) was 27.7 µM and the TGI (CAKI-1 renal) was 83.4 µM. For the same molecule, the GI50 (CCRF-CEM leukemia) was 23.6 µM, the TGI (CCRF-CEM leukemia) was 47.6 µM and the GI50 (COLO 205 colon) was 36.5 µM. It also gave a TGI (COLO 205 colon) greater than 100 µM, a GI50 (DU-145 prostate) of 40.8 µM and a TGI (DU-145 prostate) greater than 100 µM. The GI50 (EKVX NSCLC) was 35.9 µM, the TGI (EKVX NSCLC) was greater than 100 µM and the GI50 (HCC-2998 colon) was 18.2 µM. It also gave a TGI (HCC-2998 colon) of 36.2 µM, a GI50 (HCT-116 colon) of 22.8 µM and a TGI (HCT-116 colon) of 50.3 µM. For the same molecule, the GI50 (HCT-15 colon) was 18.6 µM, the TGI (HCT-15 colon) was 35.3 µM and the GI50 (HOP-62 NSCLC) was 26.1 µM. It also gave a TGI (HOP-62 NSCLC) of 66.8 µM, a GI50 (HOP-92 NSCLC) of 17.2 µM and a TGI (HOP-92 NSCLC) of 50.6 µM. It also gave a GI50 (HS 578T breast) of 48.4 µM, a TGI (HS 578T breast) greater than 100 µM and a GI50 (HT29 colon) of 54.3 µM. It also gave a TGI (HT29 colon) greater than 100 µM, a GI50 (K-562 leukemia) of 21.3 µM and a TGI (K-562 leukemia) of 44 µM. It also gave a GI50 (KM12 colon) of 17.2 µM, a TGI (KM12 colon) of 33 µM and a GI50 (LOX IMVI melanoma) of 17.9 µM. The TGI (LOX IMVI melanoma) was 31.9 µM, the GI50 (M14 melanoma) was 17.8 µM and the TGI (M14 melanoma) was 37.1 µM. For the same molecule, the GI50 (MALME-3M melanoma) was 23.6 µM, the TGI (MALME-3M melanoma) was 58.1 µM and the GI50 (MCF7 breast) was 21.4 µM. It also gave a TGI (MCF7 breast) of 40 µM, a GI50 (MDA-MB-231 breast) of 19.3 µM and a TGI (MDA-MB-231 breast) of 49.4 µM. For the same molecule, the GI50 (MDA-MB-435) was 17.9 µM, the TGI (MDA-MB-435) was 33.8 µM and the GI50 (MOLT-4 leukemia) was 17.6 µM. It also gave a TGI (MOLT-4 leukemia) of 37.1 µM, a GI50 (NCI-H226 lung) of 18.8 µM and a TGI (NCI-H226 lung) of 44.4 µM. It also gave a GI50 (NCI-H23 lung) of 20.3 µM, a TGI (NCI-H23 lung) of 39.6 µM and a GI50 (NCI-H460 lung) of 34.4 µM. For the same molecule, the TGI (NCI-H460 lung) was greater than 100 µM, the GI50 (NCI-H522 lung) was 15.3 µM and the TGI (NCI-H522 lung) was 31.3 µM. For the same molecule, the GI50 (OVCAR-3 ovarian) was 19.4 µM, the TGI (OVCAR-3 ovarian) was 39.7 µM and the GI50 (OVCAR-4 ovarian) was greater than 100 µM. The TGI (OVCAR-4 ovarian) was greater than 100 µM, the GI50 (OVCAR-5 ovarian) was 27.1 µM and the TGI (OVCAR-5 ovarian) was greater than 100 µM. The GI50 (OVCAR-8 ovarian) was 18.2 µM, the TGI (OVCAR-8 ovarian) was 39.3 µM and the GI50 (PC-3 prostate) was 23.9 µM. It also gave a TGI (PC-3 prostate) of 65.3 µM, a GI50 (RPMI-8226 leukemia) of 23.2 µM and a TGI (RPMI-8226 leukemia) of 47.6 µM. For the same molecule, the GI50 (SF-268 CNS) was 19.5 µM, the TGI (SF-268 CNS) was 41.1 µM and the GI50 (SF-295 CNS) was 19.3 µM. The TGI (SF-295 CNS) was 49.7 µM, the GI50 (SF-539 CNS) was 25.1 µM and the TGI (SF-539 CNS) was 60.7 µM. For the same molecule, the GI50 (SK-MEL-2 melanoma) was 21.2 µM, the TGI (SK-MEL-2 melanoma) was 38 µM and the GI50 (SK-MEL-28 melanoma) was 49.1 µM. It also gave a TGI (SK-MEL-28 melanoma) greater than 100 µM, a GI50 (SK-MEL-5 melanoma) of 16.3 µM and a TGI (SK-MEL-5 melanoma) of 31.6 µM. It also gave a GI50 (SK-OV-3 ovarian) of 64.4 µM, a TGI (SK-OV-3 ovarian) greater than 100 µM and a GI50 (SN12C renal) of 20.9 µM. The TGI (SN12C renal) was 47.2 µM, the GI50 (SNB-19 CNS) was 42.5 µM and the TGI (SNB-19 CNS) was greater than 100 µM. The GI50 (SNB-75 CNS) was greater than 100 µM, the TGI (SNB-75 CNS) was greater than 100 µM and the GI50 (SW-620 colon) was 33.7 µM. For the same molecule, the TGI (SW-620 colon) was greater than 100 µM, the GI50 (T-47D breast) was 66 µM and the TGI (T-47D breast) was greater than 100 µM. The GI50 (TK-10 renal) was 33.6 µM, the TGI (TK-10 renal) was greater than 100 µM and the GI50 (U251 CNS) was 22.1 µM. The TGI (U251 CNS) was 48.8 µM, the GI50 (UACC-62 melanoma) was 16.2 µM and the TGI (UACC-62 melanoma) was 37.1 µM. It also gave a GI50 (UO-31 renal) of 19.4 µM and a TGI (UO-31 renal) of 43.6 µM.

— PubChem BioAssay (NCI)
